According to ChEMBL document CHEMBL1201862, “PubChem BioAssay data set” (2004):
Calls of active or inactive are those of the source.

Columns and labels:
[1] = test system: Escherichia coli; assay: microbe, parasite or virus in culture
[2] = molecular target: T1, Polyadenylate-binding protein 1 (Homo sapiens, UniProt P11940); assay: MLLE binding blockers, Cy5 peptide tracer – biochemical, fluorescence polarization, Cy5-PAM2 peptide, secondary, miRNA deadenylation inhibitor project, dose response (AID 602260); type: functional; details: read-out: IC50_Mean
T1 sequence (P11940 whole entry, the tested form may be a part): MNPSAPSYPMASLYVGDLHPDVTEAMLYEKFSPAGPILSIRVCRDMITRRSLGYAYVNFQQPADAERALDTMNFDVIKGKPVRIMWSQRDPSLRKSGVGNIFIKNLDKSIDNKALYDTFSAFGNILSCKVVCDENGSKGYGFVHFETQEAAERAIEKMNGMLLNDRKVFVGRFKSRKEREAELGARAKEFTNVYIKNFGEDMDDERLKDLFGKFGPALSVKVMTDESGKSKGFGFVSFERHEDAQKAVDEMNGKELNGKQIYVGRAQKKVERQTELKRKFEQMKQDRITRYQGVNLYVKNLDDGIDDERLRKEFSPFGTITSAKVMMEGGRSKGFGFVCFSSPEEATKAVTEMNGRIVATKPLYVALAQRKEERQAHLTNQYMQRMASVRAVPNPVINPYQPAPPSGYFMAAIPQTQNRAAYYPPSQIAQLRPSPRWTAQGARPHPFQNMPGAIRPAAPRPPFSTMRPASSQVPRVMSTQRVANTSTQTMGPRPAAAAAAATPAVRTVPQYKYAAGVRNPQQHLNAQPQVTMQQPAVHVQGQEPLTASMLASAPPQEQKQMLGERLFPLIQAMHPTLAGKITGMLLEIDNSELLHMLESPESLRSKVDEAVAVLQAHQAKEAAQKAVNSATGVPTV

[3] = molecular target: T1, Polyadenylate-binding protein 1; assay: MLLE domain peptide-binding blockers, IC50 – biochemical, fluorescence polarization, FITC-PAM2 peptide, dose response (AID 602259); type: functional; details: read-out: IC50_Mean
[4] = molecular target: Genome polyprotein (dengue virus type 2, UniProt P29990); assay: flavivirus cap methylation enzyme inhibition – biochemical, confirmation dose response, primary screen (AID 588689); type: functional
Chain of Genome polyprotein (P29990 2492-3391 limits assumed): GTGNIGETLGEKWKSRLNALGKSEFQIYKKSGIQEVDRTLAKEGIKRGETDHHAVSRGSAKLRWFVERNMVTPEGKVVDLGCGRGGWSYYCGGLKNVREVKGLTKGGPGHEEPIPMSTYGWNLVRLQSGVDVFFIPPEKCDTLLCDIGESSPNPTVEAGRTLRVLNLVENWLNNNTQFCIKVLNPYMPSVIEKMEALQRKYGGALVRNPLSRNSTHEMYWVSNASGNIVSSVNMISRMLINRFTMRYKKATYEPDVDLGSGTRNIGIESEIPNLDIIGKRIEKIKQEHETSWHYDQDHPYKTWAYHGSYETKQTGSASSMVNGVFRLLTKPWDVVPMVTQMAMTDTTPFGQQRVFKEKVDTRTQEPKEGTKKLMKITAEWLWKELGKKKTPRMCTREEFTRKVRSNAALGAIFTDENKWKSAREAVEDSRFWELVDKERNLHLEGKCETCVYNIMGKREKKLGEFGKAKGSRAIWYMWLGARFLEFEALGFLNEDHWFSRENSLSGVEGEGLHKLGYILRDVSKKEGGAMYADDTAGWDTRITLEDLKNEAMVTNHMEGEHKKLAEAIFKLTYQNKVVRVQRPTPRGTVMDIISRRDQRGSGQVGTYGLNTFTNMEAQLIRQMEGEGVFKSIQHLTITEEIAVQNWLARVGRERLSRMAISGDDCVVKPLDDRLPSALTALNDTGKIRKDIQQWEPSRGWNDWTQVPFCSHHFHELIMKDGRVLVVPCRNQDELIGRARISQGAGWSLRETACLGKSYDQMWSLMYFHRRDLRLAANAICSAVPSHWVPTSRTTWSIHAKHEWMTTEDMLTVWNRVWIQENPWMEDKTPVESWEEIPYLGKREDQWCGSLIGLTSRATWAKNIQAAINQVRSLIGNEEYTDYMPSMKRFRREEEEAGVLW

[5] = molecular target: T2, Leucine aminopeptidase (Plasmodium falciparum 3D7, UniProt Q8IL11); assay: P. falciparum M17LAP inhibitors, primary screen, biochemical, fluorogenic H-Leu-NHMec substrate, 1536-well (AID 1619); type: functional
T2 sequence (Q8IL11 whole entry): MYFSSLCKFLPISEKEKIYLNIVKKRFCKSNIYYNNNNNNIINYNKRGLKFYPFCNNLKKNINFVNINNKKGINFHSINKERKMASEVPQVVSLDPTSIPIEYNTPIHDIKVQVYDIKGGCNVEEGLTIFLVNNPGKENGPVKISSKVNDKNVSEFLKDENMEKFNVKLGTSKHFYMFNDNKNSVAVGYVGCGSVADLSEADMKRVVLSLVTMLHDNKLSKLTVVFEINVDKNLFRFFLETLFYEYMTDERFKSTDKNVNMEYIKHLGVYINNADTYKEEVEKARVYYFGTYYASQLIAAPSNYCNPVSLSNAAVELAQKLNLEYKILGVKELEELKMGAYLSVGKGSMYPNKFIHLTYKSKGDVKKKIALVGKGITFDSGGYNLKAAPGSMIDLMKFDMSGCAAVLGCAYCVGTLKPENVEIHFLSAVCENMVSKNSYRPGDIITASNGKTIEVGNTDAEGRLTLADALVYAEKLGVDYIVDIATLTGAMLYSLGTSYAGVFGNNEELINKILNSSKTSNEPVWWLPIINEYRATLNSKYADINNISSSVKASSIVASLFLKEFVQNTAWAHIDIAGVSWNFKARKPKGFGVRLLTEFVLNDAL

[6] = loss of viability in HepG2 cells – cell-based, CellTiter-Glo, cherry-picked, cytotoxicity control for Shn3 inhibitor project, dose response (AID 624134); type: functional
[7] = non-specific 3'UTR reporter inhibition in Clone20-Shn3RL – cell-based, Renilla luciferase, cherry-picked, counter-screen for Shn3 inhibitor project, dose response (AID 624133); type: functional
[8] = reduction of Shn3 3'UTR-driven luciferase in osteoblasts – cell-based, Clone20 osteoblasts, firefly luciferase, cherry-picked, dose response (AID 624132); type: functional;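 also: firefly luciferase luminescence from reporter carrying the Shn3 3'UTR in osteoblasts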
[9] = molecular target: DNA (cytosine-5)-methyltransferase 1 (Homo sapiens, UniProt P26358); assay: inhibition of DNA methylation by DNMT1 – biochemical, fluorescent molecular beacon, confirmation (AID 602386); type: functional
Chain of DNA (cytosine-5)-methyltransferase 1 (P26358 whole entry): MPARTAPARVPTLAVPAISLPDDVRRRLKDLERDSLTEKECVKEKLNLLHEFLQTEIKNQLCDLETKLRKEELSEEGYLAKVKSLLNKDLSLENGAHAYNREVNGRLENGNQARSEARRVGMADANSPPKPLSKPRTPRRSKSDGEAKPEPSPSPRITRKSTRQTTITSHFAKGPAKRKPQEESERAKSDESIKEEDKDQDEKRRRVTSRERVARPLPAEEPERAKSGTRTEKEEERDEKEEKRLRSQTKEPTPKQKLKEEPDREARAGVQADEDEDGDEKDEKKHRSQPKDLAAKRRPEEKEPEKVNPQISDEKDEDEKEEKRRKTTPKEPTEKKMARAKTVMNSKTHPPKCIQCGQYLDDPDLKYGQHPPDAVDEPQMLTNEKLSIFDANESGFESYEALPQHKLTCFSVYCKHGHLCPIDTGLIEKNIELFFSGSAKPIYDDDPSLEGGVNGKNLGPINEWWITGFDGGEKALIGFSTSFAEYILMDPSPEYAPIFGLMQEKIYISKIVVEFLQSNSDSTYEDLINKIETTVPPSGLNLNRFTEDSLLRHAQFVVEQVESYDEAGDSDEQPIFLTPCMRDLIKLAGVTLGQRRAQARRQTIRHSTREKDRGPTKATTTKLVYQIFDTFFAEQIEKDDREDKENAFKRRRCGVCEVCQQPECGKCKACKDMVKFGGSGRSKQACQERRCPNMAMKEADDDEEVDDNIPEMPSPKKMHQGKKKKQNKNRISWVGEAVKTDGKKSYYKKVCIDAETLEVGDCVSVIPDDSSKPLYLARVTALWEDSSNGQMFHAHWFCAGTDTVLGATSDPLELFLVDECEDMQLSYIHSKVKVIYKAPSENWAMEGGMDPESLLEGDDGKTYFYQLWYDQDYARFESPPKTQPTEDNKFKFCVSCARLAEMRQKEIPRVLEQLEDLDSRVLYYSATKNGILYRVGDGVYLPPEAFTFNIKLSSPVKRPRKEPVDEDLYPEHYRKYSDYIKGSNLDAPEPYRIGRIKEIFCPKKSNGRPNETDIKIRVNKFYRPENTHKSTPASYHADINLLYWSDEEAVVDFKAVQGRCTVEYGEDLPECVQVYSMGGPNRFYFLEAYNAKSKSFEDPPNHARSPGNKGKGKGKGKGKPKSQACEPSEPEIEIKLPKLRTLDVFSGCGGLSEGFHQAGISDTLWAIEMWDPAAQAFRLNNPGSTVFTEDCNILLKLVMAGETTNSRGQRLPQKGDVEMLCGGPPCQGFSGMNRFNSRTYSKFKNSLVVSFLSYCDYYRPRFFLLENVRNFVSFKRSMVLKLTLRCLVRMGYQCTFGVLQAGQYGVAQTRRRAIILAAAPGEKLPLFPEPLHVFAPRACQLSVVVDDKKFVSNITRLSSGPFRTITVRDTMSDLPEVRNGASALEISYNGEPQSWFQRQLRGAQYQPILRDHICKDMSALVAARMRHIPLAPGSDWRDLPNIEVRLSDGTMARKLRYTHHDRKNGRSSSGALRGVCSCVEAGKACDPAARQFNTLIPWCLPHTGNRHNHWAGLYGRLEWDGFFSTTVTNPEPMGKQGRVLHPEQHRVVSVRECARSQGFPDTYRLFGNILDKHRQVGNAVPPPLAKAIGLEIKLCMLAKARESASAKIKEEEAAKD

[10] = alpha-synuclein stem-loop luciferase translation blockers – H4 neuroglioma cells, luminescence, confirmation (AID 1988); type: functional, cell-based
[11] = Luminescence Cell-Based Dose Response HTS to Identify Inhibitors of 5'UTR Stem-Loop Driven Prion Protein mRNA Translation in H4 Neuroglioblastoma Cells. [Related pubchem assays: 1827 (Project Summary), 1813 (Primary HTS)]; type: functional
[12] = luciferase reporter signal suppression in cells – H4 neuroglioma cells, luminescence, dose response (AID 1990); type: functional, cell-based
[13] = molecular target: T3, Heat shock factor protein 1 (Mus musculus, UniProt P38532); assay: enhancement of HSF1-driven luciferase signal – cell-based, NIH3T3, luminescence, dose retest, confirmation (AID 435004); type: functional;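 also: stress induced by proteasome inhibitor MG132 added 30 min after compound; luciferase reporter driven by HSF1 response element in NIH3T3 cells; actives raise luminescence as potentiators of the MG132 stress response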
T3 sequence (P38532 whole entry): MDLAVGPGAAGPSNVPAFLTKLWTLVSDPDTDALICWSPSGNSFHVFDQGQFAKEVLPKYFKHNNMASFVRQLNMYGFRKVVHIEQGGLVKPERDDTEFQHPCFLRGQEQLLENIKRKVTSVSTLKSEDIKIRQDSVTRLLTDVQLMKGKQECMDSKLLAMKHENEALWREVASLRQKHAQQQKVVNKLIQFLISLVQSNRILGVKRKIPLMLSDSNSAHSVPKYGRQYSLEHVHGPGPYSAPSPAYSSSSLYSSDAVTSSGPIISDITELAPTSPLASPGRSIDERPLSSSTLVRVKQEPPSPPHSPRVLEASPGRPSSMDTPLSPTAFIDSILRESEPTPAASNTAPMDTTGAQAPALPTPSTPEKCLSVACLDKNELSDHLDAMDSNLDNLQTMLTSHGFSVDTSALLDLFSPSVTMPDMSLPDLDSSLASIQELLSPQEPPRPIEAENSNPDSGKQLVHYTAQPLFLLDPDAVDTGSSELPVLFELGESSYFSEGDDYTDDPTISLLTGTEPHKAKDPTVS

[14] = molecular target: T4, Protein RecA (Mycobacterium tuberculosis, UniProt P9WHJ3); assay: Fluorescence Cell-Free Homogeneous Dose Retest to Identify Inhibitors of RecA-Intein Splicing Activity. [Related pubchem assays (depositor defined):AID2097, AID2223, AID489010, AID492950]; type: functional
T4 sequence (P9WHJ3 whole entry): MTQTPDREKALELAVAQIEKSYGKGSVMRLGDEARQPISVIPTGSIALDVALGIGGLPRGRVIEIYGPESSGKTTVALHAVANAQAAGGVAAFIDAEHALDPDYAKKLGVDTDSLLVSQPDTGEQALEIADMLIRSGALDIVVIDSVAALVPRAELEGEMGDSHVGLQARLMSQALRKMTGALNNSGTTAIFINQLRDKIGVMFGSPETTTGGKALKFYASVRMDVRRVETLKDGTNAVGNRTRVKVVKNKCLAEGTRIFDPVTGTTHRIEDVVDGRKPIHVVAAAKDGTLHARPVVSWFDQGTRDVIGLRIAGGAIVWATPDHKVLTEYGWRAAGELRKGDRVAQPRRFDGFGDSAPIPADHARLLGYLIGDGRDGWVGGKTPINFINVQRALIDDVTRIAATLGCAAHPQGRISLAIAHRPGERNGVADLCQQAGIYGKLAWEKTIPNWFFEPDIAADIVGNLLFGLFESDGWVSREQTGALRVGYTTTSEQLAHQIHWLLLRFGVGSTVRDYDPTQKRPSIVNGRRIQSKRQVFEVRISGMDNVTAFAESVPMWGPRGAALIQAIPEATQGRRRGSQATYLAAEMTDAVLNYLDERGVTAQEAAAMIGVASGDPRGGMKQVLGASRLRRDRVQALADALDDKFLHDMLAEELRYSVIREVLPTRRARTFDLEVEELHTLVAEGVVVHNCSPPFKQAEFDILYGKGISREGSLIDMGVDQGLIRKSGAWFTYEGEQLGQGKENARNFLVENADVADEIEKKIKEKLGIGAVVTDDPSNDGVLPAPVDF

[15] = molecular target: G-protein coupled receptor 55 (Homo sapiens, UniProt Q9Y2T6); assay: selective activators of receptor GPR55 – imaging, U2OS cells, beta-arrestin-GFP redistribution, primary screen (AID 1961); type: functional
Chain of G-protein coupled receptor 55 (Q9Y2T6 whole entry): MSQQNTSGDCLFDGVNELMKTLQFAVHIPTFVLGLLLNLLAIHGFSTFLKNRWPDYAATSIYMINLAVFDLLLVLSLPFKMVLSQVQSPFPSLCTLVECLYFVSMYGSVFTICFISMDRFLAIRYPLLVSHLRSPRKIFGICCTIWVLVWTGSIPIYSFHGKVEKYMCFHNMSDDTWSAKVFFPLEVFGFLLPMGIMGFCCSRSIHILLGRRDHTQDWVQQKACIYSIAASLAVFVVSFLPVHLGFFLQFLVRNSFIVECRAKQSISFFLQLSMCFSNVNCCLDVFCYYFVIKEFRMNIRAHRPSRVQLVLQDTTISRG

[16] = molecular target: T5, Replicative DNA helicase DnaB (Mycobacterium tuberculosis, UniProt P9WMR3); assay: DnaB intein splicing inhibitors, dose response, biochemical, cell-free fluorescence (AID 449749); type: functional
T5 sequence (P9WMR3 whole entry): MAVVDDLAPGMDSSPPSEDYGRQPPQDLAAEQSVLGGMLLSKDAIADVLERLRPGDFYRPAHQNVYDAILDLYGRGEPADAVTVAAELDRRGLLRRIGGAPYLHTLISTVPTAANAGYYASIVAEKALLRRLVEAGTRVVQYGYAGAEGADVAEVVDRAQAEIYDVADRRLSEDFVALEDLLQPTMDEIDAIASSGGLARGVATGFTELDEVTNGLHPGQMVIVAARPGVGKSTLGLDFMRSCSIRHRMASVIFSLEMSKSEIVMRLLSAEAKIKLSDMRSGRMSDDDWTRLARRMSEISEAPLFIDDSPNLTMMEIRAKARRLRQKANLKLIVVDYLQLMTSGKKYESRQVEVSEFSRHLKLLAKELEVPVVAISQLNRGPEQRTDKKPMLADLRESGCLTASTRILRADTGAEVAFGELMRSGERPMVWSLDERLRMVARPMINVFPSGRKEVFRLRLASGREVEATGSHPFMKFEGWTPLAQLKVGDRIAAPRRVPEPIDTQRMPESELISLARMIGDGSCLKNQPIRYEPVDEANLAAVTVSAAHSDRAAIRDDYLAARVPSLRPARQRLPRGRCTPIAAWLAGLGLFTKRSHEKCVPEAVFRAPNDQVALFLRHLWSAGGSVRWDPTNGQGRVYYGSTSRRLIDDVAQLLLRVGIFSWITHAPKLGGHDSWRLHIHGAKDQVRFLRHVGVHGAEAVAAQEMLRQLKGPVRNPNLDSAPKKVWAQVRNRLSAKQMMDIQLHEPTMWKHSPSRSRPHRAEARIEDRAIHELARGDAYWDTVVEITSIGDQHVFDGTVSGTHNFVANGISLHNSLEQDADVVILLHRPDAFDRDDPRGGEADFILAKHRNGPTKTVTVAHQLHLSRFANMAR

[17] = test system: INS1; assay: INS-1E survival protection against cytokine death – cell-based, luminescence, retest, dose response (AID 449756); type: functional; details: Rattus norvegicus;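 also: cell death triggered by IL-1 beta plus TNF-alpha plus IFN-gamma mixture; protective hits raise ATP signal compared with cytokine alone wells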
[18] = molecular target: Cytochrome P450 2C19 (Homo sapiens, UniProt P33261); assay: Cytochrome panel assay with activity outcomes. Panel member name: p450-cyp2c19 Compounds with AC50 equal or less than 10 uM are considered active; type: functional; details: read-out: AC50
Chain of Cytochrome P450 2C19 (P33261 whole entry): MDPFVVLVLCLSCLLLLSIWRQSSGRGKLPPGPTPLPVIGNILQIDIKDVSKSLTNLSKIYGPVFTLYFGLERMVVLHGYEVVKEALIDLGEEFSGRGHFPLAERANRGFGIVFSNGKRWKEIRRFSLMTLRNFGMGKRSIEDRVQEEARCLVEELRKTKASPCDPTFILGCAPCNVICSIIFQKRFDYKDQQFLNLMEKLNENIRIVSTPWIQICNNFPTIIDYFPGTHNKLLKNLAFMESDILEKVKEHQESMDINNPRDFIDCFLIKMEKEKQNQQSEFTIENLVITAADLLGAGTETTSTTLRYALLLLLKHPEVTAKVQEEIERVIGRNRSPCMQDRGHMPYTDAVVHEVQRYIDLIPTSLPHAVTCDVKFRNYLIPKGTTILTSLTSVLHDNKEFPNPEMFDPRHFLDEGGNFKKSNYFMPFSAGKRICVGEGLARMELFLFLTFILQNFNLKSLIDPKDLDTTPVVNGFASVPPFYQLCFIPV

## CCCCN(CCCC)C(=O)c1cn(CC)c2cc(N3CCN(C)CC3)c(F)cc2c1=O
[1]
  AC50: 1.67 µM (active)

## O=C(O)CSC1CC(=O)N(c2ccc(Cl)c(Cl)c2)C1=O (stereo not drawn)
[2]
  IC50: > 66 µM (inactive)
[3]
  IC50: > 66 µM (inactive)

## CCCCCCSc1nc(O)c(C2OC(=O)c3c2ccc(OC)c3OC)c(=O)n1-c1ccccc1 (stereo not drawn)
[4]
  IC50: 30.2 µM (active)
[5]
  IC50: 4.82 µM (active)

## O=C(Nc1cccc(Cl)c1Cl)C1CC(=O)N(c2ccc(Br)cc2)C1 (stereo not drawn)
[6]
  AC50: 38.4 µM (active)
[7]
  AC50: 9.56 µM (active)
[8]
  AC50: 8.23 µM (active)

## CC(C)(C)NC(=O)CSc1nc2ccc(NC(=O)CSc3nnnn3Cc3ccccc3)cc2s1
[6]
  AC50: 53 µM (active)
[7]
  AC50: 6.81 µM (active)
[8]
  AC50: 3.26 µM (active)

## O=C(CCc1nc(O)c2ccccc2n1)OCC(=O)c1cccc(Cl)c1
[1]
  AC50: 41.4 µM (active)

## CC(C)(CNC(=O)c1ccc(Cl)c(S(=O)(=O)N2CCc3ccccc3C2)c1)N1CCOCC1
[6]
  AC50: 2.14 µM (active)
[8]
  AC50: 10.5 µM (active)

## COc1ccc(CC(N)c2csc(NC(=O)Nc3ccc(C(C)C)cc3)n2)cc1 (stereo not drawn)
[6]
  AC50: 10.9 µM (active)
[7]
  AC50: 11.9 µM (active)
[8]
  AC50: 5.16 µM (active)

## CCOC(=O)c1nn(-c2ccc(F)cc2)c(=O)cc1OCC(=O)Nc1ccc(OCC)cc1
[9]
  IC50: > 99 µM (inactive)

## c1ccc(-n2c(SCC3CCCCO3)nnc2-c2cccs2)cc1 (stereo not drawn)
[1]
  AC50: 24.4 µM (active)

## O=C(CCSc1nnc(-c2ccco2)o1)N1CCOCC1
[1]
  AC50: 119 µM (active)

## CCOc1cc(C(=O)CSc2nnc(CNc3ccc(Cl)cc3)o2)ccc1NC(=O)CC
[6]
  AC50: 29.5 µM (active)
[10]
  EC50: 7.28 µM (active)
[7]
  AC50: 36.5 µM (active)
[11]
  EC50: 23 µM (active)
[12]
  EC50: > 120 µM (not active)
[8]
  AC50: 7.73 µM (active)

## COc1ccc(S(=O)(=O)CC(=O)c2cc3cccc(C)c3oc2=O)cc1
[4]
  IC50: 78.1 µM (active)

## COc1ccc(NC(=O)c2ccco2)cn1
[2]
  IC50: > 66 µM (inactive)
[3]
  IC50: 34.1 µM (inactive)

## COc1ccc2nc3cc(Cl)ccc3c(Nc3cc(C(C)C)c(O)cc3C)c2c1
[13]
  EC50: 154 µM (active)
[14]
  EC50: 0.318 µM (active)
[15]
  EC50: 1 µM (active)
[16]
  AC50: > 380 µM (inactive)

## Cc1ccc(-n2ncc3c2CCCC3NC(=O)c2ocnc2C)cc1C (stereo not drawn)
[6]
  AC50: 0.594 µM (active)
[17]
  AC50: 3.69 µM (active)
[7]
  AC50: 3.35 µM (active)
[8]
  AC50: 1.29 µM (active)

## Cc1[nH]n(-c2ccccc2)c(=O)c1C(c1cccc([N+](=O)[O-])c1)c1c(C)[nH]n(-c2ccccc2)c1=O
[4]
  IC50: 52.9 µM (active)
[14]
  EC50: 0.805 µM (active)
[16]
  AC50: 3.28 µM (active)

## CCCCc1c(O)n(-c2ccccc2)c(SCCN(C)C)nc1=O
[2]
  IC50: > 66 µM (inactive)
[3]
  IC50: > 66 µM (inactive)
[18]
  AC50: 6.31 µM (inconclusive)
